Patent publication US20130281465A1, “PYRAZOLE DERIVATIVE” (TAISHO PHARMACEUTICAL CO., LTD., priority 2010, published 2013)

How the values were obtained:
[1] = target: T1, human orexin type 1 receptor (hOX1R) (Homo sapiens, UniProt O43613); experiment: Orexin receptor antagonistic activity, intracellular Ca2+ fluorescence (FDSS) in CHO cells expressing hOX1R; type: cell-based; details: CHO cells forced to express hOX1R; orexin-A analogue peptide ligand 300 pM; Fluo-4 maximum fluorescence; read-out: IC50 value OX1R
T1 construct: expressed in transfected cells; host or cells: Chinese hamster ovary (CHO) cells
T1 sequence (O43613 1-425): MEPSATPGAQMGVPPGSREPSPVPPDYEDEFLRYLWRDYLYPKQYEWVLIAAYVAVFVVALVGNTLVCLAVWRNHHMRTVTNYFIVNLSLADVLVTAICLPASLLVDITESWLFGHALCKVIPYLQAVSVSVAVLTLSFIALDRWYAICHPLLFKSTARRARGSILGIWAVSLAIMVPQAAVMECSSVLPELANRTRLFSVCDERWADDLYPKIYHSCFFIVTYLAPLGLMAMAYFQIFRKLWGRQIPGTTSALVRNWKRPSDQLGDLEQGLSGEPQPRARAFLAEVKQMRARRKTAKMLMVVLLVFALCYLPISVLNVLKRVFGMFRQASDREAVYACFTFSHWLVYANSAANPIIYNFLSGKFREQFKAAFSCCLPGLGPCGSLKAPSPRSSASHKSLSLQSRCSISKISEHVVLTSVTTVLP
Procedure: (§1) The antagonistic activity of each test compound against human orexin type 1 receptor (hOX1R) and orexin type 2 receptor (hOX2R) was performed as described in the literature with a modification (Toshikatsu Okumura et al., Biochemical and Biophysical Research Communications 280, 976-981, 2001). Chinese hamster ovary (CHO) cells forced to express hOX1R or hOX2R were seeded at 20,000 cells/well on a 96 well Black clear bottom plates (Nunc) and cultured for 16 hours under conditions of 37° C. and 5% CO2 using a Ham's F-12 medium containing 0.1 mM MEM non-essential amino acids, 0.5 mg/ml G418, and 10% fetal bovine serum (all from Invitrogen Corp.). After removal of the medium, 100 μL of the assay buffer (25 mM HEPES (Dojindo Laboratories), Hanks' balanced salt solution (Invitrogen Corp.), 0.1% bovine serum albumin, 2.5 mM probenecid, 200 μg/ml Amaranth (all from Sigma-Aldrich Corp.), pH 7.4) containing 0.5 μM Fluo-4AM ester (Dojindo Laboratories) was added thereto, and the cells were incubated for 60 minutes under conditions of 37° C. and 5% CO2. After removal of the buffer solution for assay containing Fluo-4AM ester, the test compound was dissolved at a concentration of 10 mM in dimethyl sulfoxide and diluted with the assay buffer, and 150 μL of the diluted solution was then added to each wells, which were then incubated for 30 minutes.
(§2) A peptide (Pyr-[…]11e-Leu-Thr-Leu-NH2; Peptide Institute, Inc.) substituted 2 amino acids of human orexin-A was diluted with the assay buffer to 300 pM (final concentration for hOX1R) or 3 nM (final concentration for hOX2R). 50 μL of this ligand solution was added thereto to start reaction. During the reaction, the fluorescence value of each well was measured every one second for 3 minutes using Functional Drug Screening System (FDSS; manufactured by Hamamatsu Photonics K.K.), and antagonistic activity was determined with the maximum fluorescence value as an index for intracellular Ca^2+ concentration. The antagonistic activity of the test compound was calculated with the fluorescence value of a well supplemented with only a dilution buffer solution as 100% and the fluorescence value of a well supplemented with a buffer solution containing neither the ligand nor the compound as 0%, and determined in terms of 50% inhibitory concentration (IC50 value) from fluorescence values derived from the test compound added at varying concentrations.

[2] = target: T2, orexin type 2 receptor (hOX2R) (Homo sapiens, UniProt O43614); experiment: Orexin receptor antagonistic activity, intracellular Ca2+ fluorescence (FDSS) in CHO cells expressing hOX2R; type: cell-based; details: CHO cells forced to express hOX2R; orexin-A analogue peptide ligand 3 nM; Fluo-4 maximum fluorescence; read-out: IC50 value OX2R
T2 construct: expressed in transfected cells; host or cells: Chinese hamster ovary (CHO) cells
T2 sequence (O43614 1-444): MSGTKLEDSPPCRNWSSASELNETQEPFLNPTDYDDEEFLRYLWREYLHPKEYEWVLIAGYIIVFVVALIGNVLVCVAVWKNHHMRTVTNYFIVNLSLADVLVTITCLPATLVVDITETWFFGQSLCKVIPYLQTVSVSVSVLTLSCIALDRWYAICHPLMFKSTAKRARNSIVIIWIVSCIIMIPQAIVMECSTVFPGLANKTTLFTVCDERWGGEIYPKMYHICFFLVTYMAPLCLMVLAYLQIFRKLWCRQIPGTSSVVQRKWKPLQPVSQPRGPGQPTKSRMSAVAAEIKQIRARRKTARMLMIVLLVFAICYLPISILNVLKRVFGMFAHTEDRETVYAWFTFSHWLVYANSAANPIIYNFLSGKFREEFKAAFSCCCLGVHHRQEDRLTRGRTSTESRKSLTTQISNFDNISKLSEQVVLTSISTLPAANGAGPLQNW
Procedure: as §1, §2

Row | Compound | IC50 [1] [nM] | IC50 [2] [nM]
1 | Cc1ccc(-n2nccn2)c(C(=O)N(CCn2ccc(-c3ccccc3)n2)CC2CC2)c1 [Example 29, N-(cyclopropylmethyl)-5-methyl-N-[2-(3-phenyl-1H-pyrazol-1-yl)ethyl]-2-(2H-1,2,3-triazol-2-yl)benzamide] | 1.5 | 6.1
2 | CCN(CCn1ccc(-c2ccc(F)cn2)n1)C(=O)c1ccc(F)cc1-c1ncccn1 [Example 49, N-ethyl-4-fluoro-N-{2-[3-(5-fluoropyridin-2-yl)-1H-pyrazol-1-yl]ethyl}-2-(pyrimidin-2-yl)benzamide] | 7.1 | 48.8
3 | CCN(CCn1ccc(-c2ccc(F)cn2)n1)C(=O)c1cc(C)ccc1-c1ccccn1 [Example 35, N-ethyl-N-{2-[3-(5-fluoropyridin-2-yl)-1H-pyrazol-1-yl]ethyl}-5-methyl-2-(pyridin-2-yl)benzamide] | 1.8 | 11.7
4 | CCN(CCn1ccc(-c2cccc(C(F)(F)F)n2)n1)C(=O)c1ccccc1-c1ncccn1 [Example 58, N-ethyl-(pyrimidin-2-yl)-N-(2-{3-[6-(trifluoromethyl)pyridin-2-yl]-1H-pyrazol-1-yl}ethyl)benzamide] | 78.9 | 140
5 | CCN(CCn1ccc(-c2ccc(F)cc2)n1)C(=O)c1cc(F)ccc1-c1ncccn1 [Example 54, N-ethyl-5-fluoro-N-{2-[3-(4-fluorophenyl)-1H-pyrazol-1-yl]ethyl}-2-(pyrimidin-2-yl)benzamide] | 2 | 19.2
6 | CCN(CCn1cc(-c2cccc(C)n2)cn1)C(=O)c1cc(C)ccc1-n1nccn1 [Example 12, N-ethyl-N-{2-[4-(6-methylpyridin-2-yl)-1H-pyrazol-1-yl]ethyl}-5-methyl-2-(2H-1,2,3-triazol-2-yl)benzamide] | 1.8 | 22.7
7 | Cc1ccc(-n2nccn2)c(C(=O)N(CCn2cc(-c3ccc(F)cn3)cn2)C(C)C)c1 [Example 14, N-{2-[4-(5-fluoropyridin-2-yl)-1H-pyrazol-1-yl]ethyl}-5-methyl-N-(propan-2-yl)-2-(2H-1,2,3-triazol-2-yl)benzamide] | 597 | 412
8 | CCN(CCn1ccc(-c2ccc(F)cn2)n1)C(=O)c1cc(C)ccc1-c1ncccn1 [Example 26, N-ethyl-N-{2-[3-(5-fluoropyridin-2-yl)-1H-pyrazol-1-yl]ethyl}-5-methyl-2-(pyrimidin-2-yl)benzamide] | 1.4 | 3.7
9 | Cc1ccc(-n2nccn2)c(C(=O)N(CCn2cc(-c3ccc(F)cn3)cn2)CC2CC2)c1 [Example 5, N-(cyclopropylmethyl)-N-{2-[4-(5-fluoropyridin-2-yl)-1H-pyrazol-1-yl]ethyl}-5-methyl-2-(2H-1,2,3-triazol-2-yl)benzamide] | 102 | 38.7
10 | CCN(CCn1ccc(-c2cccc(C(F)(F)F)n2)n1)C(=O)c1cc(F)ccc1-c1ncccn1 [Example 57, N-ethyl-5-fluoro-2-(pyrimidin-2-yl)-N-(2-{3-[6-(trifluoromethyl)pyridin-2-yl]-1H-pyrazol-1-yl}ethyl)benzamide] | 22.9 | 99.5
11 | CCN(CCn1cc(-c2ccccn2)cn1)C(=O)c1cc(C)ccc1-n1nccn1 [Example 11, N-ethyl-5-methyl-N-{2-[4-(pyridin-2-yl)-1H-pyrazol-1-yl]ethyl}-2-(2H-1,2,3-triazol-2-yl)benzamide] | 10.5 | 17.2

Now from value to compound:

Row | IC50 [1] [nM] | IC50 [2] [nM] | Compound
12 | 6 | 14.6 | CCN(CCn1cc(-c2ccc(F)cn2)cn1)C(=O)c1cc(C)ccc1-n1nccn1 [Example 4, N-ethyl-N-{2-[4-(5-fluoropyridin-2-yl)-1H-pyrazol-1-yl]ethyl}-5-methyl-2-(2H-1,2,3-triazol-2-yl)benzamide]
13 | 1.1 | 1.3 | CCN(CCn1ccc(-c2cccc(C(F)(F)F)n2)n1)C(=O)c1cc(C)ccc1-n1nccn1 [Example 52, N-ethyl-5-methyl-2-(2H-1,2,3-triaz ° 1-2-yl)-N-(2-{3-[6-(trifluoromethyl)pyridin-2-yl]-1H-pyrazol-1-yl}ethyl)benzamide]
14 | 0.8 | 7.1 | CCN(CCn1ccc(-c2ccc(F)cn2)n1)C(=O)c1ccc(C)cc1-n1nccn1 [Example 47, N-ethyl-N-{2-[3-(5-fluoropyridin-2-yl)-1H-pyrazol-1-yl]ethyl}-4-methyl-2-(2H-1,2,3-triazol-2-yl)benzamide]
15 | 50.9 | 394 | CCN(CCn1ccc(-c2ccc(C(F)(F)F)cn2)n1)C(=O)c1cc(C)ccc1-n1nccn1 [Example 51, N-ethyl-5-methyl-2-(2H-1,2,3-triazol-2-yl)-N-(2-{3-[5-(trifluoromethyl)pyridin-2-yl]-1H-pyrazol-1-yl}ethyl)benzamide]
16 | 20 | 214 | CCN(CCn1ccc(-c2ccc(F)cn2)n1)C(=O)c1cc(OC)ccc1-n1nccn1 [Example 50, N-ethyl-N-{2-[3-(5-fluoropyridin-2-yl)-1H-pyrazol-1-yl]ethyl}-5-methoxy-2-(2H-1,2,3-triazol-2-yl)benzamide]
17 | 38.7 | 46.9 | CCN(CCn1ccc(-c2ccc(F)cn2)n1)C(=O)c1c(F)cccc1-n1nccn1 [Example 45, N-ethyl-2-fluoro-N-{2-[3-(5-fluoropyridin-2-yl)-1H-pyrazol-1-yl]ethyl}-6-(2H-1,2,3-triazol-2-yl)benzamide]
18 | 115 | 598 | Cc1ccc(-n2nccn2)c(C(=O)NCCn2ccc(-c3ccc(F)cn3)n2)c1 [Example 16, N-{2-[3-(5-fluoropyridin-2-yl)-1H-pyrazol-1-yl]ethyl}-5-methyl-2-(2H-1,2,3-triazol-2-yl)benzamide]
19 | 5.5 | 10.3 | CCN(CCn1ccc(-c2ccc(F)cn2)n1)C(=O)c1cccc(F)c1-n1nccn1 [Example 48, N-ethyl-3-fluoro-N-{2-[3-(5-fluoropyridin-2-yl)-1H-pyrazol-1-yl]ethyl}-2-(2H-1,2,3-triazol-2-yl)benzamide]
20 | 0.5 | 7.6 | CCN(CCn1ccc(-c2ccc(F)cn2)n1)C(=O)c1cc(F)ccc1-c1ncccn1 [Example 41, N-ethyl-5-fluoro-N-{2-[3-(5-fluoropyridin-2-yl)-1H-pyrazol-1-yl]ethyl}-2-(pyrimidin-2-yl)benzamide]
21 | 17.3 | 29.8 | CCN(CCn1ccc(-c2ccc(F)cn2)n1)C(=O)c1ccc(F)cc1-n1nccn1 [Example 44, N-ethyl-4-fluoro-N-{2-[3-(5-fluoropyridin-2-yl)-1H-pyrazol-1-yl]ethyl}-2-(2H-1,2,3-triazol-2-yl)benzamide]
22 | 6.5 | 2.2 | CCN(CCn1ccc(-c2ccc(F)cn2)n1)C(=O)c1cc(Cl)ccc1-n1nccn1 [Example 33, 5-Chloro-N-ethyl-N-{2-[3-(5-fluoropyridin-2-yl)-1H-pyrazol-1-yl]ethyl}-2-(2H-1,2,3-triazol-2-yl)benzamide]
